Reference: ChEMBL document CHEMBL1201862, “PubChem BioAssay data set” (2004)
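All cell lines were grown in 96-well plates and treated with compound for 48 hours. GI50 = concentration required for 50% inhibition of growth.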 Calls of active or inactive are those of the source. Rule as the data show it: active = GI50 up to about 1.1 µM and inactive = higher.

What was measured:
Assay in all cases: inhibition of tumour cell growth, NCI panel, 48 h
HCC 2998 = test system: HCC 2998
Malme-3M = test system: Malme-3M
SNB-75 = test system: SNB-75
RPMI-8226 = test system: RPMI-8226
SK-OV-3 = test system: SK-OV-3
MCF7 = test system: MCF7
UACC-62 = test system: UACC-62
LOX IMVI = test system: LOX IMVI
EKVX = test system: EKVX
UO-31 = test system: UO-31
MDA-MB-231 = test system: MDA-MB-231
SF-295 = test system: SF-295
UACC-257 = test system: UACC-257
DU-145 = test system: DU-145
SR = test system: SR
IGROV-1 = test system: IGROV-1
OVCAR-8 = test system: OVCAR-8
OVCAR-3 = test system: OVCAR-3
T47D = test system: T47D
U-251 = test system: U-251

For `CSc1ccc2c(cc1=O)[C@@H](NC(=O)c1ccc([N+](=O)[O-])cc1)CCc1cc(O)c(O)c(O)c1-2`, the GI50 (HCC 2998) was > 100 µM (inactive), the GI50 (Malme-3M) was > 100 µM (inactive) and the GI50 (SNB-75) was > 100 µM (inactive). For the same molecule, the GI50 (RPMI-8226) was 40.3 µM (inactive), the GI50 (SK-OV-3) was > 100 µM (inactive) and the GI50 (MCF7) was 31.8 µM (inactive). For the same molecule, the GI50 (UACC-62) was 53.3 µM (inactive), the GI50 (LOX IMVI) was 34.8 µM (inactive) and the GI50 (EKVX) was > 100 µM (inactive). The GI50 (UO-31) was 78.3 µM (inactive), the GI50 (MDA-MB-231) was 28.2 µM (inactive) and the GI50 (SF-295) was 32.8 µM (inactive). For the same molecule, the GI50 (UACC-257) was > 100 µM (inactive), the GI50 (DU-145) was > 100 µM (inactive) and the GI50 (SR) was 3.99 µM (inactive). The GI50 (IGROV-1) was 35.4 µM (inactive), the GI50 (OVCAR-8) was 32.1 µM (inactive) and the GI50 (OVCAR-3) was 15.7 µM (inactive). The GI50 (T47D) was > 100 µM (inactive) and the GI50 (U-251) was 34.2 µM (inactive).

`CC(C)=CCC[C@@H](C)C1=CC(=O)C(C)=C(O)C1=O` [ISOPEREZONE] was tested, and the GI50 (HCC 2998) was 17.1 µM (inactive), the GI50 (Malme-3M) was 10.2 µM (inactive) and the GI50 (SNB-75) was 4.5 µM (inactive). The GI50 (RPMI-8226) was 0.445 µM (active), the GI50 (SK-OV-3) was 17.9 µM (inactive) and the GI50 (MCF7) was 3.62 µM (inactive). The GI50 (UACC-62) was 9.33 µM (inactive), the GI50 (LOX IMVI) was 2.83 µM (inactive) and the GI50 (EKVX) was 5.56 µM (inactive). For the same molecule, the GI50 (UO-31) was 3.69 µM (inactive), the GI50 (MDA-MB-231) was 6.38 µM (inactive) and the GI50 (SF-295) was 14.1 µM (inactive). The GI50 (UACC-257) was 10.9 µM (inactive), the GI50 (DU-145) was 6.08 µM (inactive) and the GI50 (SR) was 2.39 µM (inactive). For the same molecule, the GI50 (IGROV-1) was 9.2 µM (inactive), the GI50 (OVCAR-8) was 2.15 µM (inactive) and the GI50 (OVCAR-3) was 4.19 µM (inactive). The GI50 (T47D) was 2.13 µM (inactive) and the GI50 (U-251) was 8.79 µM (inactive).

For `O=C(Nc1ccc([N+](=O)[O-])cc1)Nn1cnnc1`, the GI50 (HCC 2998) was 55.1 µM (inactive), the GI50 (Malme-3M) was 15.9 µM (inactive) and the GI50 (SNB-75) was > 100 µM (inactive). For the same molecule, the GI50 (RPMI-8226) was 49.7 µM (inactive), the GI50 (SK-OV-3) was > 100 µM (inactive) and the GI50 (MCF7) was 73.6 µM (inactive). For the same molecule, the GI50 (UACC-62) was 46.3 µM (inactive), the GI50 (LOX IMVI) was 96.8 µM (inactive) and the GI50 (EKVX) was > 100 µM (inactive). For the same molecule, the GI50 (UO-31) was 53.1 µM (inactive), the GI50 (MDA-MB-231) was > 10 µM (inactive) and the GI50 (SF-295) was 29 µM (inactive). For the same molecule, the GI50 (UACC-257) was 94 µM (inactive), the GI50 (DU-145) was 64 µM (inactive) and the GI50 (SR) was 31.6 µM (inactive). The GI50 (IGROV-1) was 80 µM (inactive), the GI50 (OVCAR-8) was 27.3 µM (inactive) and the GI50 (OVCAR-3) was 12.2 µM (inactive). The GI50 (T47D) was 24 µM (inactive) and the GI50 (U-251) was 27.5 µM (inactive).

For `CCN(CC)CCCC(C)Nc1ccnc(/C=C/c2ccc(Cl)cc2)c1` (stereo not given), the GI50 (HCC 2998) was 1.95 µM (inactive), the GI50 (Malme-3M) was 1.21 µM (inactive) and the GI50 (SNB-75) was 1.77 µM (inactive). The GI50 (RPMI-8226) was 1.72 µM (inactive), the GI50 (SK-OV-3) was 3.61 µM (inactive) and the GI50 (MCF7) was 2.55 µM (inactive). The GI50 (UACC-62) was 1.94 µM (inactive), the GI50 (LOX IMVI) was 1.26 µM (inactive) and the GI50 (EKVX) was 4.2 µM (inactive). The GI50 (UO-31) was 1.52 µM (inactive), the GI50 (MDA-MB-231) was 0.497 µM (active) and the GI50 (SF-295) was 3.02 µM (inactive). For the same molecule, the GI50 (UACC-257) was 2.02 µM (inactive), the GI50 (DU-145) was 9.08 µM (inactive) and the GI50 (SR) was 2.3 µM (inactive). For the same molecule, the GI50 (IGROV-1) was 2.17 µM (inactive), the GI50 (OVCAR-8) was 3.43 µM (inactive) and the GI50 (OVCAR-3) was 1.63 µM (inactive). The GI50 (T47D) was 1.93 µM (inactive) and the GI50 (U-251) was 1.66 µM (inactive).

For `Clc1ccc(-c2c(C3=NCCCN3)nnn2-c2ccc(Cl)cc2)cc1`, the GI50 (HCC 2998) was 18.2 µM (inactive), the GI50 (Malme-3M) was 17.8 µM (inactive) and the GI50 (SNB-75) was 29.8 µM (inactive). The GI50 (RPMI-8226) was 31.4 µM (inactive), the GI50 (SK-OV-3) was > 76.6 µM (inactive) and the GI50 (MCF7) was 26.8 µM (inactive). For the same molecule, the GI50 (UACC-62) was 18.5 µM (inactive), the GI50 (LOX IMVI) was 21.1 µM (inactive) and the GI50 (EKVX) was 63.1 µM (inactive). The GI50 (UO-31) was 39.1 µM (inactive), the GI50 (MDA-MB-231) was > 48.2 µM (inactive) and the GI50 (SF-295) was 34.7 µM (inactive). For the same molecule, the GI50 (UACC-257) was 22.3 µM (inactive), the GI50 (DU-145) was > 91.2 µM (inactive) and the GI50 (SR) was 15.7 µM (inactive). The GI50 (IGROV-1) was 56 µM (inactive), the GI50 (OVCAR-8) was > 70.3 µM (inactive) and the GI50 (OVCAR-3) was > 78.7 µM (inactive). The GI50 (T47D) was 31.3 µM (inactive) and the GI50 (U-251) was 49.8 µM (inactive).
